Here are results for 25 compounds from US10829473B2, “Modulators of the cystic fibrosis transmembrane conductance regulator protein and methods of use” (AbbVie Overseas S.Á.R.L., priority 2017, dated 2020).

The target in this test is T1, F508delCFTR (Homo sapiens, UniProt P13569, DEL508-508).
T1 construct: expressed in transfected cells; host or cells: CFBE41o- human lung derived epithelial cells (CFBE41o-F508delCFTR-HRP), doxycycline-inducible
Briefly: Cell Surface Expression-Horse Radish Peroxidase (CSE-HRP) Assay.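 As to EC50 (with co-corrector): co-corrector chromenyl benzoic acid corrector at 2 or 3 µM.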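 As to Maximum % activity (without co-corrector): % of on-plate positive control chromenyl benzoic acid corrector at 2 or 3 µM.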 It is filed as cell-based. The following applies: for Maximum % activity (with co-corrector) / Emax: maximum at any tested concentration; for Emax: read-out: Maximum % activity (without co-corrector). The essentials: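 Corrector compounds were given as 8-point 3-fold series from 20 or 30 μM, with or without a 2 μM co-corrector, for 18-24 h at 33 °C. Surface HRP was read by luminol luminescence as % of positive control; variable-Hill-slope sigmoidal fitting gave EC50 from triplicate plates.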

The mark [1] stands for this setting: test compound alone, without co-corrector, read-out: EC50 (without co-corrector).
[2] abbreviates: with co-corrector, read-out: EC50 (with co-corrector).
[3] abbreviates: test compound with co-corrector.
[4] abbreviates: test compound with co-corrector, read-out: EC50 (with co-corrector).
Where [5] appears, read: test compound without co-corrector.
[6] abbreviates: test compound without co-corrector, read-out: EC50 (without co-corrector).

pEC50: −log10 of the molar value. Like-named read-outs stand apart in the source and are kept apart here. Marks after values point to notes of the source that are not given here. Some results are limits rather than exact numbers.

T1 sequence (P13569 with tags, fused parts or gaps DEL508-508): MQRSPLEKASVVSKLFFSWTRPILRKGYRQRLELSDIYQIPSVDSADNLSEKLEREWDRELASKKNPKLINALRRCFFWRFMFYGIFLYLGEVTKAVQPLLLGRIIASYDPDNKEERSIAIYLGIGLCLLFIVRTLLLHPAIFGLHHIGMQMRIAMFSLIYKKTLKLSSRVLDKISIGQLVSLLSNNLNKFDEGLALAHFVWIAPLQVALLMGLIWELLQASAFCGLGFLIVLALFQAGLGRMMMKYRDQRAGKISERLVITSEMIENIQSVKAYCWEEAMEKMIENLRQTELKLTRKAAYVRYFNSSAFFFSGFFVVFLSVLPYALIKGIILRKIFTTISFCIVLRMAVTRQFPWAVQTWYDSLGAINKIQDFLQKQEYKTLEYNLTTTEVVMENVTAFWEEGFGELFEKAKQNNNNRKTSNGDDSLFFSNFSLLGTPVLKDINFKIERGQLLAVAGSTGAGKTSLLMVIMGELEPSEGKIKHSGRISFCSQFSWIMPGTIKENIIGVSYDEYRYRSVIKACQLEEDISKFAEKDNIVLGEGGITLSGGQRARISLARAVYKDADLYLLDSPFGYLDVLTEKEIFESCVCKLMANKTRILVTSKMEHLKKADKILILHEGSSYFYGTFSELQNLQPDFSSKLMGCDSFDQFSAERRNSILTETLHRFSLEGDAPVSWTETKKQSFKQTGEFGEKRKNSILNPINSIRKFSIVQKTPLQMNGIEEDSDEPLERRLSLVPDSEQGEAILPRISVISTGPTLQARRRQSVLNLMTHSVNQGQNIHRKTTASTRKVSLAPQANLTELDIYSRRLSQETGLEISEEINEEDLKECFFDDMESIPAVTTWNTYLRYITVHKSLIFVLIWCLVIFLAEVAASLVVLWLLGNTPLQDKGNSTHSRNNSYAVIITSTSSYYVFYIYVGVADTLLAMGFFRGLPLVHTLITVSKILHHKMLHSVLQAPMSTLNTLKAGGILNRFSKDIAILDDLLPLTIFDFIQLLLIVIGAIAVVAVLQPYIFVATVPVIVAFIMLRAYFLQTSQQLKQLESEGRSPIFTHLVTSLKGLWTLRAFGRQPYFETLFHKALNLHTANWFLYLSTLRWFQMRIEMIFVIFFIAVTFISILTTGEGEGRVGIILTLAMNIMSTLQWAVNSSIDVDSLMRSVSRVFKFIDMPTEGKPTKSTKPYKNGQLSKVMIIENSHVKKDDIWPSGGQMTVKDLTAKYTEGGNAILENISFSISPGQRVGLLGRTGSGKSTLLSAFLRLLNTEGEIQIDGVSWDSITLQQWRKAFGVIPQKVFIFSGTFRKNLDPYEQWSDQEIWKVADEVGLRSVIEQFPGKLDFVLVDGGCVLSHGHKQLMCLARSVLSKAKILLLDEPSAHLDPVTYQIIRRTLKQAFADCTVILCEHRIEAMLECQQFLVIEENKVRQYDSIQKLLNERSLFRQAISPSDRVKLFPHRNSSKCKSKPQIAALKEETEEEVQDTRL

Usually pEC50 stands for −log10 of the EC50, conventionally taken in molar units. Regarding `COc1cccc(OC)c1C1(C(=O)NS(=O)(=O)c2cccc3ccccc23)CC1` [Example I-7, 1-(2,6-dimethoxyphenyl)-N-(naphthalene-1-sulfonyl)cyclopropane-1-carboxamide], the negative logarithm of the EC50 (pEC50) runs as follows: under setting [1], 5.00 to 5.52; under setting [2], above 5.52. Moreover, the “Maximum % activity (with co-corrector)” value (with co-corrector) is given as “+++ (≥350)”. Also, the Emax (without co-corrector) is above 150%.
For `CC(C)Oc1ncc(CO)cc1C1(C(=O)NS(=O)(=O)c2cccc3ncccc23)CC1` [GIII-35], the “Maximum % activity (with co-corrector)” value under setting [3] is “+ (<150)”. The pEC50 is below 5.00 under setting [4] and below 5.00 under setting [6]. Moreover, under setting [5], the Emax is below 50%.
Regarding `COc1nc2ccccc2cc1C1(C(=O)NS(=O)(=O)c2cccc3ncccc23)CC1` [Example I-76, 1-(2-methoxyquinolin-3-yl)-N-(quinoline-5-sulfonyl)cyclopropane-1-carboxamide], the pEC50 is 5.00 to 5.52 under setting [1] and above 5.52 under setting [2]. In addition, the “Maximum % activity (with co-corrector)” value (with co-corrector) is “+++ (≥350)”. For the same compound, the Emax (without co-corrector) was above 150%.
Take `COc1cc(C2CCC2)cc(OC)c1C1(C(=O)NS(=O)(=O)c2cccn3nccc23)CC1` [II-68]: the pEC50 runs as follows: under setting [1], 5.00 to 5.52; under setting [2], above 5.52. Also, for the setting “with co-corrector”, the “Maximum % activity (with co-corrector)” value was “+++ (≥350)”. The Emax (without co-corrector) is above 150%.
As for `CCOc1ccc(C(C)(C)OCC)cc1C1(C(=O)NS(=O)(=O)c2cccc3ncccc23)CC1` [Example I-99, 1-[2-ethoxy-5-(2-ethoxypropan-2-yl)phenyl]-N-(quinoline-5-sulfonyl)cyclopropane-1-carboxamide], the pEC50 under setting [1] is above 5.52 and the pEC50 under setting [2] is above 5.52. For the same compound, the “Maximum % activity (with co-corrector)” value (with co-corrector) is listed as “+++ (≥350)”. Where the note is “without co-corrector”, the Emax is above 150%.
In the case of `Cc1cnc(N(C)C)c(C2(C(=O)NS(=O)(=O)c3cccc4ncccc34)CC2)c1` [GII-41, 1-[2-(dimethylamino)-5-methylpyridin-3-yl]-N-(quinoline-5-sulfonyl)cyclopropane-1-carboxamide], the “Maximum % activity (with co-corrector)” value under setting [3] is “+++ (≥350)”. In addition, the negative-log EC50 (pEC50) was 5.00 to 5.52 under setting [4] and 5.00 to 5.52 under setting [6]. Further, under setting [5], the Emax was 50 to 150%.
For the compound `COc1ccc(C)cc1C1(C(=O)NS(=O)(=O)c2cccc3[nH]ncc23)CC1` [Example I-53, N-(1H-indazole-4-sulfonyl)-1-(2-methoxy-5-methylphenyl)cyclopropane-1-carboxamide], the pEC50 is, setting by setting: under setting [1], 5.00 to 5.52; under setting [2], above 5.52. Besides, under “with co-corrector”, the “Maximum % activity (with co-corrector)” value is reported as “+++ (≥350)”. Besides, the Emax (without co-corrector) is above 150%.
For `Cc1cnc(OC(C)C)c(C2(C(=O)NS(=O)(=O)c3cccc4[nH]ccc34)CC2)c1` [Example GI-59, N-(1H-indole-4-sulfonyl)-1-{5-methyl-2-[(propan-2-yl)oxy]pyridin-3-yl}cyclopropane-1-carboxamide], the “Maximum % activity (with co-corrector)” value under setting [3] is on record as “+++ (≥350)”. The pEC50 reads like this: under setting [4], above 5.52; under setting [6], 5.00 to 5.52. Besides, the Emax under setting [5] was above 150%.
`O=C(N1CCc2ccc(S(=O)(=O)NC(=O)C3(c4cccc(Cl)c4)CC3)cc2C1)C(F)(F)F` [Example III-72, 1-(3-chlorophenyl)-N-[2-(trifluoroacetyl)-1,2,3,4-tetrahydroisoquinoline-7-sulfonyl]cyclopropane-1-carboxamide]: the pEC50 is below 5.00 under setting [1] and below 5.00 under setting [2]. In addition, the “Maximum % activity (with co-corrector)” value (with co-corrector) is given as “+ (<150)”. The Emax (without co-corrector) was below 50%.
In the case of `COc1cc(C2(C(=O)NS(=O)(=O)c3cccc4nc(N)ccc34)CC2)c(OCC(C)C)cn1` [Example I-92, N-(2-aminoquinoline-5-sulfonyl)-1-[2-methoxy-5-(2-methylpropoxy)pyridin-4-yl]cyclopropane-1-carboxamide], the pEC50 by setting is: under setting [1], above 5.52; under setting [2], above 5.52. In addition, the “Maximum % activity (with co-corrector)” value (with co-corrector) was “+++ (≥350)”. Under “without co-corrector”, the Emax is above 150%.
As to `COc1ccc(C2CCC2)c(C2(C(=O)NS(=O)(=O)c3cccc4ncccc34)CC2)c1` [II-46], the pEC50 is, setting by setting: under setting [1], above 5.52; under setting [2], above 5.52. Further, where the note is “with co-corrector”, the “Maximum % activity (with co-corrector)” value was “+++ (≥350)”. Further, the Emax (without co-corrector) was above 150%.
Turning to `COc1ccc(CO)cc1C1(C(=O)NS(=O)(=O)c2cccc3ncccc23)CC1` [II-48], the pEC50 is below 5.00 under setting [1] and 5.00 to 5.52 under setting [2]. Besides, for the setting “with co-corrector”, the “Maximum % activity (with co-corrector)” value was “++ (≥150 and <350)”. The Emax (without co-corrector) is below 50%.
`O=C(NS(=O)(=O)C1CCS(=O)(=O)C1)C1(c2ccc(Cl)cc2Cl)CC1` (stereo not shown) [Example III-36, 1-(2,4-dichlorophenyl)-N-(1,1-dioxo-1λ^6-thiolane-3-sulfonyl)cyclopropane-1-carboxamide]: the pEC50 by setting is: under setting [1], below 5.00; under setting [2], below 5.00. In addition, the “Maximum % activity (with co-corrector)” value (with co-corrector) is “+ (<150)”. Besides, the Emax (without co-corrector) was below 50%.
With `Cc1cnc(F)cc1C1(C(=O)NS(=O)(=O)c2cccc3ncccc23)CC1` [GIII-16], the “Maximum % activity (with co-corrector)” value under setting [3] was “+ (<150)”. Further, the negative-log EC50 (pEC50) runs as follows: under setting [4], below 5.00; under setting [6], below 5.00. Moreover, the Emax under setting [5] is below 50%.
Consider `COc1cc(C2(C(=O)NS(=O)(=O)c3cccc4ncccc34)CC2)c(OC(F)F)cn1` [GIII-19], for which, under setting [3], the “EC50 (with co-corrector)” value is given as “++^a”; the “Maximum % activity (with co-corrector)” value is “++ (≥150 and <350)”. Further, under setting [5], the “EC50 (without co-corrector)” value is reported as “++^a” and the Emax is 50 to 150%.
For the compound `COc1ccc(C2(C)COC2)cc1C1(C(=O)NS(=O)(=O)c2cccc3ncccc23)CC1` [II-89], the pEC50 is 5.00 to 5.52 under setting [1] and 5.00 to 5.52 under setting [2]. In addition, for the setting “with co-corrector”, the “Maximum % activity (with co-corrector)” value is recorded as “+++ (≥350)”. The Emax (without co-corrector) was above 150%.
With `COc1ccc(C)c(C2(C(=O)NS(=O)(=O)c3cccc4ncccc34)CCN(C)CC2)c1` [Example III-94, 4-(5-methoxy-2-methylphenyl)-1-methyl-N-(quinoline-5-sulfonyl)piperidine-4-carboxamide], the pEC50 by setting is: under setting [1], below 5.00; under setting [2], below 5.00. For the same compound, for the setting “with co-corrector”, the “Maximum % activity (with co-corrector)” value is “+ (<150)”. Besides, for the setting “without co-corrector”, the Emax was below 50%.
`Cc1ccc2c(S(=O)(=O)NC(=O)C3(c4cc(OC(C)C)cnc4OC(C)C)CC3)cccc2n1` [Example GI-67, 1-{2,5-bis[(propan-2-yl)oxy]pyridin-3-yl}-N-(2-methylquinoline-5-sulfonyl)cyclopropane-1-carboxamide]: under setting [3], the “Maximum % activity (with co-corrector)” value is recorded as “+++ (≥350)”. For the same compound, the pEC50 runs as follows: under setting [4], above 5.52; under setting [6], 5.00 to 5.52. Moreover, under setting [5], the Emax is above 150%.
Regarding `COC(C)(C)c1ccc(OC(F)F)c(C2(C(=O)NS(=O)(=O)c3cccc4ncccc34)CC2)c1` [II-108], the negative-log EC50 (pEC50) runs as follows: under setting [1], 5.00 to 5.52; under setting [2], 5.00 to 5.52. For the same compound, the “Maximum % activity (with co-corrector)” value (with co-corrector) was “+++ (≥350)”. Besides, the Emax (without co-corrector) is above 150%.
For the compound `COc1ccc(C)nc1C1(C(=O)NS(=O)(=O)c2cccc3ccccc23)CC1` [Example III-125, 1-(3-methoxy-6-methylpyridin-2-yl)-N-(naphthalene-1-sulfonyl)cyclopropane-1-carboxamide], the pEC50 under setting [1] was 5.00 to 5.52 and the pEC50 under setting [2] is 5.00 to 5.52. In addition, the “Maximum % activity (with co-corrector)” value (with co-corrector) was “+++ (≥350)”. For the same compound, where the note is “without co-corrector”, the Emax is above 150%.
`COc1cc(C2(C(=O)NS(=O)(=O)c3cccc4ncccc34)CC2)c(OCC(F)F)cn1` [GIII-18]: under setting [3], the “EC50 (with co-corrector)” value is given as “++^a”; the “Maximum % activity (with co-corrector)” value is “++ (≥150 and <350)”. For the same compound, under setting [5], the “EC50 (without co-corrector)” value was “++^a” and the Emax was 50 to 150%.
In the case of `CCc1cnc(N2CCC(OC)CC2)c(C2(C(=O)NS(=O)(=O)c3cccc4ncccc34)CC2)c1` [GII-57, 1-[5-ethyl-2-(4-methoxypiperidin-1-yl)pyridin-3-yl]-N-(quinoline-5-sulfonyl)cyclopropane-1-carboxamide], the “Maximum % activity (with co-corrector)” value under setting [3] is recorded as “+++ (≥350)”. The pEC50 is 5.00 to 5.52 under setting [4] and 5.00 to 5.52 under setting [6]. Besides, the Emax under setting [5] was above 150%.
`COc1ccc(OC)c(C2(C(=O)NS(=O)(=O)c3cccc4ccccc34)CC2)c1` [Example I-28, 1-(2,5-dimethoxyphenyl)-N-(naphthalene-1-sulfonyl)cyclopropane-1-carboxamide]: the pEC50 was above 5.52 under setting [1] and above 5.52 under setting [2]. In addition, the “Maximum % activity (with co-corrector)” value (with co-corrector) is “+++ (≥350)”. The Emax (without co-corrector) is above 150%.
Regarding `CCOc1ccc(C)cc1C1(C(=O)NS(=O)(=O)c2cccc3nc(N(C)C)ccc23)CC1` [Example III-134, N-[2-(dimethylamino)quinoline-5-sulfonyl]-1-(2-ethoxy-5-methylphenyl)cyclopropane-1-carboxamide], the pEC50 reads like this: under setting [1], above 5.52; under setting [2], above 5.52. In addition, where the note is “with co-corrector”, the “Maximum % activity (with co-corrector)” value is on record as “+++ (≥350)”. In addition, for the setting “without co-corrector”, the Emax was above 150%.
Consider `CC(C)Oc1ncccc1C1(C(=O)NS(=O)(=O)c2cccc3c2CCCN3)CC1` [GII-4, 1-{2-[(propan-2-yl)oxy]pyridin-3-yl}-N-(1,2,3,4-tetrahydroquinoline-5-sulfonyl)cyclopropane-1-carboxamide], for which the “Maximum % activity (with co-corrector)” value under setting [3] is “++ (≥150 and <350)”. The pEC50 under setting [4] is 5.00 to 5.52 and the pEC50 under setting [6] is 5.00 to 5.52. Also, the Emax under setting [5] was 50 to 150%.
